This note sets out measurements from PubChem BioAssay (NCI).

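96-well plates; 48 h exposure; 5 concentrations. Endpoints by linear interpolation between flanking doses. Not reached: highest tested concentration assigned. GI50 = concentration required for 50% inhibition of growth. The concentration for full growth arrest is given as TGI.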 Some results are limits rather than exact numbers.

Among the test systems are NCI-H522 lung; T-47D breast; MOLT-4 leukemia; HOP-62 NSCLC; SW-620 colon; SK-MEL-2 melanoma; SF-295 CNS; A549 NSCLC.
Holding throughout (assay): DTP human tumour cell line panel, 48 h

Consider `C=C1CCC2(C#N)[C@H]3[C@H](CC[C@@H]2C)[C@@H](C)C[C@@H](CC(C)(C)NC(=O)CN2CCC2=O)[C@H]13` (stereo not given in full), for which the GI50 in the assay with NCI-H522 lung is 13.5 µM; with T-47D breast, 2.49 µM; in the assay on MOLT-4 leukemia, 13.8 µM; in the assay with HOP-62 NSCLC, 12.3 µM; in the assay with SW-620 colon, 11.3 µM; in the assay with SK-MEL-2 melanoma, 15.8 µM. For the same compound, the GI50 is 3.27 µM in the assay on SF-295 CNS and 13.3 µM in the assay with A549 NSCLC. Further, the TGI amounted to 45.6 µM in the assay on NCI-H522 lung; 9.64 µM in the assay on T-47D breast; 70.3 µM in the assay on MOLT-4 leukemia; 29 µM in the assay on HOP-62 NSCLC; 32.3 µM with SW-620 colon; 35.6 µM with SK-MEL-2 melanoma. The TGI in the assay with SF-295 CNS came to 13.4 µM; in the assay on A549 NSCLC, 50.4 µM.

In the case of `CC(C)(C)OC(=O)NCCCn1c2c(c3ccccc3c1=O)C(=O)c1ccccc1-2`, the GI50 in the assay with NCI-H522 lung was 42.4 µM; in the assay with T-47D breast, 29.6 µM; in the assay with MOLT-4 leukemia it was over 100 µM; with HOP-62 NSCLC it was 11.8 µM; in the assay on SW-620 colon it was over 100 µM; in the assay on SK-MEL-2 melanoma it was 49.3 µM. Besides, the figures for the GI50 in the assay with SF-295 CNS and in the assay on A549 NSCLC were 16.8 µM and 41.9 µM, respectively. The TGI is over 100 µM in the assay with NCI-H522 lung; over 100 µM in the assay on T-47D breast; over 100 µM in the assay with MOLT-4 leukemia; 31.3 µM with HOP-62 NSCLC; over 100 µM in the assay on SW-620 colon; over 100 µM in the assay on SK-MEL-2 melanoma. The total growth inhibition concentration (TGI) in the assay with SF-295 CNS was 44.6 µM; in the assay with A549 NSCLC, over 100 µM.

As for `S=c1nc(N/N=C/c2ccco2)c2cn[nH]c2[nH]1`, the GI50 in the assay with NCI-H522 lung is 40.5 µM; with T-47D breast, 1.95 µM; in the assay with HOP-62 NSCLC it was over 100 µM; in the assay on SW-620 colon it was 51 µM; with SK-MEL-2 melanoma, over 100 µM; in the assay with SF-295 CNS, over 100 µM. In the assay on A549 NSCLC, the GI50 was 20 µM. In addition, the TGI with NCI-H522 lung is over 100 µM; with T-47D breast, 48.1 µM; in the assay with HOP-62 NSCLC, over 100 µM; with SW-620 colon, over 100 µM; with SK-MEL-2 melanoma, over 100 µM; with SF-295 CNS it was over 100 µM. In the assay with A549 NSCLC, this compound registered a TGI of over 100 µM.

As for `CC1=Nc2ccccc2/C1=C\c1c(C)[nH]c2ccccc12`, the TGI came out at 23.6 µM in the assay with NCI-H522 lung; 29.4 µM in the assay with T-47D breast; 40.2 µM in the assay with MOLT-4 leukemia; 69.7 µM in the assay with HOP-62 NSCLC; 28.5 µM with SW-620 colon; 47.3 µM in the assay with SK-MEL-2 melanoma. In addition, the figures for the TGI in the assay with SF-295 CNS and with A549 NSCLC were 43 µM and 73.6 µM, respectively.

Turning to `OCc1ccc(-c2cscc2-c2ccc(CO)o2)o1`, the GI50 in the assay with NCI-H522 lung is over 93.3 µM; with T-47D breast, 1.46 µM; in the assay on MOLT-4 leukemia, over 100 µM; in the assay on HOP-62 NSCLC, 3.55 µM; with SW-620 colon, 7.14 µM; in the assay on SK-MEL-2 melanoma it was 22.5 µM. For the same compound, the GI50 in the assay on SF-295 CNS was 0.923 µM; in the assay with A549 NSCLC, 3.89 µM. In addition, the TGI with NCI-H522 lung is over 100 µM; with T-47D breast, 9.65 µM; in the assay with MOLT-4 leukemia, over 100 µM; in the assay on HOP-62 NSCLC, 37.6 µM; in the assay with SW-620 colon, over 100 µM; with SK-MEL-2 melanoma it was over 100 µM. For the same compound, the concentration for total growth inhibition (TGI) in the assay on SF-295 CNS was found to be 20.3 µM; in the assay on A549 NSCLC, 30.6 µM.

Regarding `COc1cc2c(cc1OC)C(=O)/C(=C/c1cc(-c3ccc4c(c3)OCO4)n[nH]1)C2`, the GI50 with NCI-H522 lung is 0.258 µM; in the assay on T-47D breast, 1.31 µM; in the assay with MOLT-4 leukemia it was 2.57 µM; in the assay on HOP-62 NSCLC, 1.53 µM; in the assay with SW-620 colon, 1.35 µM; in the assay with SF-295 CNS it was 1.64 µM. Besides, the GI50 in the assay on A549 NSCLC was 1.96 µM. For the same compound, the TGI was found to be 0.871 µM with NCI-H522 lung; 2.72 µM in the assay on T-47D breast; 6.97 µM in the assay with MOLT-4 leukemia; 2.96 µM in the assay with HOP-62 NSCLC; 3.47 µM in the assay on SW-620 colon; 3.26 µM in the assay on SF-295 CNS. Also, in the assay on A549 NSCLC, the TGI worked out at 5.45 µM.

For the compound `COc1ccc(-c2nc(-c3nc4ccc(F)cc4[nH]3)c3ccccn23)cc1`, the GI50 was 4.49 µM in the assay on NCI-H522 lung; 3.55 µM with T-47D breast; 3.83 µM in the assay on MOLT-4 leukemia; 7.41 µM in the assay on HOP-62 NSCLC; 22.4 µM in the assay on SW-620 colon; 10.1 µM with SK-MEL-2 melanoma. Besides, the GI50 in the assay with A549 NSCLC was 3.96 µM. In addition, the TGI is 25 µM in the assay on NCI-H522 lung; 20.8 µM in the assay with T-47D breast; over 100 µM in the assay on MOLT-4 leukemia; 32.3 µM with HOP-62 NSCLC; over 100 µM in the assay on SW-620 colon; 54.8 µM in the assay with SK-MEL-2 melanoma. In the assay with A549 NSCLC, the TGI was found to be 28.4 µM.

`O=c1[nH]c2ccccc2n1CCCN1CCC(n2c(=O)[nH]c3cc(Cl)ccc32)CC1`: the TGI in the assay with NCI-H522 lung was 29.7 µM; in the assay with T-47D breast it was 37.3 µM; with MOLT-4 leukemia, 45.1 µM; with HOP-62 NSCLC, 36.4 µM; in the assay on SW-620 colon it was 39.2 µM; in the assay with SK-MEL-2 melanoma it was 35.7 µM. The compound also yielded a TGI in the assay with A549 NSCLC of 63.8 µM.

Take `c1ccc2c(-c3nc(-c4c[nH]c5ccncc45)cs3)c[nH]c2c1`: the GI50 in the assay with NCI-H522 lung was 1.92 µM; in the assay on HOP-62 NSCLC, 1.71 µM; in the assay with SW-620 colon it was 1.73 µM; in the assay with SK-MEL-2 melanoma, 2.09 µM; with SF-295 CNS, 1.58 µM; with A549 NSCLC it was 2.45 µM. The TGI is 3.92 µM in the assay on NCI-H522 lung; 4.27 µM with HOP-62 NSCLC; 3.54 µM in the assay with SW-620 colon; 3.95 µM with SK-MEL-2 melanoma; 3.2 µM in the assay on SF-295 CNS; 6.21 µM with A549 NSCLC.

With `O=C(Oc1ccc(CO[N+](=O)[O-])cc1)c1ccccc1`, the GI50 with NCI-H522 lung was 0.158 µM; with T-47D breast, 0.137 µM; in the assay on HOP-62 NSCLC, 0.161 µM; with SW-620 colon, 0.103 µM; with SK-MEL-2 melanoma it was 0.162 µM; with SF-295 CNS, 0.194 µM. The GI50 in the assay with A549 NSCLC is 1.23 µM. Also, the TGI in the assay with NCI-H522 lung worked out at 0.318 µM; in the assay on T-47D breast, 0.323 µM; with HOP-62 NSCLC, 0.316 µM; in the assay with SW-620 colon, 0.251 µM; in the assay with SK-MEL-2 melanoma, 0.322 µM; in the assay on SF-295 CNS, 0.631 µM. The compound further returned a TGI in the assay on A549 NSCLC of 2.49 µM.

For the compound `NCCOCCOCCNc1nc(-c2ccc(Cl)cc2)nc(N2CCN(c3ccccn3)CC2)n1`, the GI50 with T-47D breast was 3.09 µM; with MOLT-4 leukemia, 1.99 µM; with SW-620 colon, 1.75 µM; in the assay on SF-295 CNS, 2.35 µM. For the same compound, the TGI was 9.94 µM in the assay on T-47D breast, 3.85 µM with MOLT-4 leukemia, 3.35 µM in the assay on SW-620 colon and 6.46 µM in the assay on SF-295 CNS.

As to `COC(=O)C1=C(C(=O)OC)C2(C)C=CC1O2` (stereo not given), the TGI is 5.56 µM in the assay with NCI-H522 lung; 13 µM in the assay with T-47D breast; over 100 µM with HOP-62 NSCLC; 17.2 µM in the assay with SW-620 colon; 43.8 µM with SK-MEL-2 melanoma; over 100 µM in the assay on A549 NSCLC.
